Read-outs that look alike come from different tables or passages of the source.
Key:
VEEV (TC-83) [1] = conditions: U-87 MG cells; recently reported; ref Pu et al., 2020; cited from earlier work
U-87 MG cells = test system: U-87 MG cells; set-up: method as in Pu et al., 2020; conditions: ref Pu et al., 2020; cited from earlier work
in vitro [2] = conditions: human
RSV-A [3] = test: RSV-A cytopathic effect (CPE) reduction assay in HEp-2 cells, MTS read-out; assay type: cell-based, human respiratory syncytial virus, RSV-A strain Long
[4] = target: adaptor-associated kinase 1 (AAK1); set-up: method as in Verdonck et al., 2019; conditions: ref Verdonck et al., 2019; read-out: AAK1 IC50 (enzymatic assay); cited from earlier work
in vitro [5] = conditions: human; remark: listed apart in the source
AAK1 = AAK1 (Homo sapiens, UniProt Q2M2I8); test: LanthaScreen Eu Kinase Binding Assay for AAK1
Sequence of AAK1 (Q2M2I8 whole entry): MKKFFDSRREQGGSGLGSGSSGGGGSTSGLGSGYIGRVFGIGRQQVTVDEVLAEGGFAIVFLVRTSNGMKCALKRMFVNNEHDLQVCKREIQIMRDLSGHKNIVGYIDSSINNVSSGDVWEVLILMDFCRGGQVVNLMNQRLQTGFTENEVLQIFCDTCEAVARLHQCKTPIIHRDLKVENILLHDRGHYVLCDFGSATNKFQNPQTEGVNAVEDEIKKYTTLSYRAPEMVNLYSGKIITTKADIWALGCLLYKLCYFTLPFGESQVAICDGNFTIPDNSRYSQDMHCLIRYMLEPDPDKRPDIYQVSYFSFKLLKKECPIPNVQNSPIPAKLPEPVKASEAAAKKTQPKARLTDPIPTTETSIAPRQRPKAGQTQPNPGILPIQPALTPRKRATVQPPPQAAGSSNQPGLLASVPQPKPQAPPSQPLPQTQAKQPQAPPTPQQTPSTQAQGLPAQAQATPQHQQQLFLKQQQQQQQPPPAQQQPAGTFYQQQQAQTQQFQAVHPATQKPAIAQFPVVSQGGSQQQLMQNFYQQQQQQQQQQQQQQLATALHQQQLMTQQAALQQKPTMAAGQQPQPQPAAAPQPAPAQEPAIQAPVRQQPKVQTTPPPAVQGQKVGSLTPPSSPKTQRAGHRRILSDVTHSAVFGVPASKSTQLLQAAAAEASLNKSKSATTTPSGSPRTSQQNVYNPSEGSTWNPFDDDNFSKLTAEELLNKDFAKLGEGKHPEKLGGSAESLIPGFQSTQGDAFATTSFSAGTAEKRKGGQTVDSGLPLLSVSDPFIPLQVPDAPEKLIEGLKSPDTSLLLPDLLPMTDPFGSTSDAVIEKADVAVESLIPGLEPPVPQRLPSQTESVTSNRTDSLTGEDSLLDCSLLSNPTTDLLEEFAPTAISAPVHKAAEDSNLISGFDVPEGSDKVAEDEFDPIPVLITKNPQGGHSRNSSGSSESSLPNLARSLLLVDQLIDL

VEEV (TC-83) [6] = test: microbe, parasite or virus in culture; assay type: cell-based; conditions: Venezuelan equine encephalitis virus, U-87 MG, 18 h, read-out: VEEV EC50
in vitro [7] = conditions: African green monkey
RSV-A [8] = test: Anti-RSV-A activity in A549 cells, viral RNA in supernatant by RT-qPCR; assay type: cell-based, RSV-A strain Long; conditions: human respiratory syncytial virus, 120 h; A549 cells, RT-qPCR of culture supernatant, MOI 0.1, 5 days; read-out: RSV-A EC50 (A549, viral RNA levels)
SARS-CoV-2 = test: microbe, parasite or virus in culture; assay type: cell-based, SARS-CoV-2 BetaCov/Belgium/GHB-03021/2020; conditions: Severe acute respiratory syndrome coronavirus 2, 96 h, read-out: SARS-CoV-2 EC50
[9] = human respiratory syncytial virus, HEp-2, 96 h; read-out: RSV-A EC50

Structure (SMILES): COc1cc(O)c2c(c1)/C=C/C[C@H](O)[C@H](O)C(=O)/C=C\C[C@H](C)OC2=O [5Z-7-Oxozeanol]
- EC50 (VEEV (TC-83) [1]): 2660 ± 130 nM
- CC50 (U-87 MG cells): > 10000 nM

Structure (SMILES): COc1ccc(-c2cnc3[nH]cc(C#Cc4cccnc4)c3c2)cc1OC [Compound 1]
- CC50 at 4 days (in vitro [2]): 2000 nM
- selectivity index (SI) (RSV-A [3]; CC50 HEp-2 / EC50 RSV-A): 10.5
- EC50 (RSV-A [3]; human respiratory syncytial virus, HEp-2, 96 h, read-out: RSV-A EC50): 190 ± 130 nM
- IC50 [4]: 4 nM
- CC50 (in vitro [5]): > 10000 nM
- IC50 (AAK1): 4.2 nM
- EC50 (VEEV (TC-83) [6]): 1220 ± 220 nM

Structure (SMILES): CCNC(=O)c1ccc(-c2cnc3[nH]cc(C#Cc4cccnc4)c3c2)cc1 [Compound 8b]
- CC50 (in vitro [7]): > 100000 nM
- CC50 at 4 days (in vitro [2]): 50000 nM
- EC50 (RSV-A [3]; [9]): 300 ± 280 nM
- CC50 (in vitro [5]): > 10000 nM
- EC50 (RSV-A [8]): 10 nM
- AAK1 affinity (in words) (AAK1): low nanomolar AAK1 affinity
- IC50 (AAK1): 4 nM
- EC50 (VEEV (TC-83) [6]): 6010 ± 1810 nM
- EC50 (SARS-CoV-2): 580 ± 50 nM

Structure (SMILES): CNC(=O)c1cccc(-c2cnc3[nH]cc(C#Cc4cccnc4)c3c2)c1 [Compound 8e]
- CC50 at 4 days (in vitro [2]): > 50000 nM
- EC50 (RSV-A [3]; [9]): 290 ± 320 nM
- CC50 (in vitro [5]): > 10000 nM
- EC50 (RSV-A [8]): 200 nM
- AAK1 affinity (in words) (AAK1): low nanomolar AAK1 affinity
- IC50 (AAK1): 3.5 nM
- EC50 (VEEV (TC-83) [6]): > 10000 nM

Structure (SMILES): O=C(NC1CC1)c1cccc(-c2cnc3[nH]cc(C#Cc4cccnc4)c3c2)c1 [Compound 8f]
- CC50 at 4 days (in vitro [2]): > 50000 nM
- EC50 (RSV-A [3]; [9]): 160 ± 25 nM
- CC50 (in vitro [5]): > 10000 nM
- EC50 (RSV-A [8]): 590 nM
- AAK1 affinity (in words) (AAK1): low nanomolar AAK1 affinity
- IC50 (AAK1): 5.4 nM
- EC50 (VEEV (TC-83) [6]): 2750 ± 1220 nM

Source: article PMC9643853, “Synthesis and evaluation of 3-alkynyl-5-aryl-7-aza-indoles as broad-spectrum antiviral agents” (Frontiers in Chemistry, 2022)
